Calls of active or inactive are those of the source. How the calls were made is not given here.

The target in the test is Ubiquitin-conjugating enzyme E2 N (Homo sapiens) (UniProt P61088). The test is described as follows: NMR detection of UBE2N ligand binding – biophysical, purified protein (AID 1552). Particulars: NMR binding to purified UBE2N.
Chain of Ubiquitin-conjugating enzyme E2 N (Homo sapiens) (P61088 whole entry, looked up): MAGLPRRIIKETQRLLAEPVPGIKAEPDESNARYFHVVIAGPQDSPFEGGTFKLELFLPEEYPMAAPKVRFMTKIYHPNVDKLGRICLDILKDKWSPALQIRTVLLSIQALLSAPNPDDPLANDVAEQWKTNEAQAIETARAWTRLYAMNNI
Regarding `CSc1nc(NC(C)C)nc(N2CCOCC2)n1`, the Kd – broadly, a measure of binding affinity in units of concentration – is > 4 mM (inactive).

For the compound `CC(=O)O[C@H]1CCC2(C)C3=C(CCC2C1(C)C)[C@]1(C)CCC(C(C)CCC=C(C)C)[C@@]1(C)CC3` (stereo partly specified), the Kd was > 4 mM (inactive). Next, `Nc1ccc2nccnc2c1`: > 4 mM (inactive); `COC(=O)c1ccc2ncccc2c1`: > 4 mM (inactive); `COC(=O)c1cn(C(=O)OC)c2ccccc12`: > 4 mM (inactive). With `CC(NC(=O)c1cccnc1)c1ccc2c(c1)OCO2` (stereo unspecified), the Kd was > 4 mM (inactive).

`O=[N+]([O-])c1cccc(-c2c[n+](=O)c3c(n2[O-])CCC3)c1`: the Kd is > 4 mM (inactive). For the compound `COc1ccc(S(=O)(=O)N2CCC(C(N)=O)CC2)cc1`, the Kd was > 4 mM (inactive). Next, `CCc1c(C(=O)Nc2ccncc2)csc1C`: > 4 mM (inactive); `CN(c1ccccc1C(=O)N1CCOCC1)S(C)(=O)=O`: > 4 mM (inactive); `O=C(O)Cn1cc(C(=O)C2CC2)c2ccccc21`: > 4 mM (inactive). With `Cc1nnc(SCC(=O)N2CCCCC2)s1`, the Kd is > 4 mM (inactive).

Turning to `O=C(NCc1ccccn1)c1ccc(Cl)cc1Cl`, the Kd was > 4 mM (inactive). For `N#Cc1nc(-c2ccccc2Cl)oc1N1CCOCC1`, the Kd was > 4 mM (inactive). As to `Cc1cc(C)n(C/C=C/Cn2nc(C)cc2C)n1`, the Kd is > 4 mM (inactive).

As for `Cn1c(O)c(C2=NC(=S)NC2=O)c2ccccc21`, the Kd is > 4 mM (inactive).

On to `CSc1nc2cc(F)c(F)cc2n1C`, for which the Kd is > 4 mM (inactive). As for `O=C(Cc1cccs1)Nc1nncs1`, the figure is > 4 mM (inactive).

`CN(C(=O)c1cc2cccnc2n(C)c1=O)c1ccccc1`: the Kd was > 4 mM (inactive). As for `NS(=O)(=O)c1ccc(N2CCCC2=O)cc1`, the figure is > 4 mM (inactive); as for `CC(C)Oc1ccc(C2CC(=O)NNC2=O)cc1` (stereo unspecified), > 4 mM (inactive). Next, `Cc1cc2nc(SCC(=O)O)nc(C)c2cc1C`: > 4 mM (inactive). `CCn1ncc(Cl)c1C(=O)Nc1ccncc1`: the Kd is > 4 mM (inactive). Regarding `COc1c(O)cc2c(c1O)[C@H]1O[C@H](CO)[C@@H](O)[C@H](O)[C@@H]1OC2=O`, the Kd is > 4 mM (inactive).

For the compound `Nc1ccccc1N1CCOCC1`, the Kd was > 4 mM (inactive).

In the case of `COCC(=O)Nc1ccc(F)cc1F`, the Kd is > 4 mM (inactive). In the case of `Cc1cc(NC(=O)CSc2nncn2C)no1`, the Kd is > 4 mM (inactive). As to `CC(=O)c1c(C)n(O)c2ccc3nonc3c12`, the Kd was > 4 mM (inactive).

For `COCc1cc(C)nc2sc(C(=O)OC)c(N)c12`, the Kd is > 4 mM (inactive).

In the case of `Cc1occc1C(=O)N1CCN(S(C)(=O)=O)CC1`, the Kd is > 4 mM (inactive).

As to `Cc1ccc2c(C)c(C(=O)Nc3nnc(C)s3)oc2c1`, the Kd was > 4 mM (inactive). As for `COc1ccc(-c2nnc(-c3ccc(N)cc3)o2)cc1`, the figure is > 4 mM (inactive). Next, `O=C1C2C3CCC(O3)C2C(=O)N1c1cccc(F)c1` (stereo unspecified): > 4 mM (inactive); `C=CCSc1[nH]c(=O)cc(C)c1C(N)=O`: > 4 mM (inactive); `Cc1c(N=Cc2ccco2)c(=O)n(-c2ccccc2)n1C`: > 4 mM (inactive). As for `O=C(O)/C=C/c1ccc(O)c(O)c1`, the figure is > 4 mM (inactive); as for `Cc1nc(-c2cccc(N)c2)cs1`, > 4 mM (inactive). As for `C=CCN1CC[C@]23c4c5ccc(O)c4OC2C(=O)CC[C@@]3(O)[C@H]1C5` (stereo partly specified), the Kd is > 4 mM (inactive).

With `COc1ccc(S(=O)(=O)N2CCOCC2)cc1C(C)C`, the Kd is > 4 mM (inactive). As for `NCCCCN`, the figure is > 4 mM (inactive). Next, `COCC(=O)Nc1nc2ccc(C)cc2s1`: > 4 mM (inactive).

As to `O=C(Nc1nncs1)c1c(F)c(F)c(F)c(F)c1F`, the Kd was > 4 mM (inactive).

Regarding `COCCn1cnc2cc(C)c(C)cc21`, the Kd is > 4 mM (inactive). Regarding `CCn1c(=O)cc(N2CCC3(CC2)OCCO3)[nH]c1=O`, the Kd is > 4 mM (inactive). With `O=C(CSc1ccnc(=O)[nH]1)NCc1ccco1`, the Kd is > 4 mM (inactive). In the case of `O=c1[nH]c2c(c(=O)n1C1CCCCC1)CCC2`, the Kd was > 4 mM (inactive).

As to `CCC(=O)Nc1ccccc1NC(C)=O`, the Kd was > 4 mM (inactive). On to `CC(=O)Nc1cc2c(cc1C(=O)C(C)C)OCCO2`, for which the Kd was > 4 mM (inactive). For the compound `C/C=C(/C)C(=O)O[C@@H]1Cc2c(ccc3ccc(=O)oc23)OC1(C)C`, the Kd was > 4 mM (inactive). Consider `CCNS(=O)(=O)c1ccc(OC)c(C)c1`, for which the Kd was > 4 mM (inactive). On to `CCc1noc(C)c1C(=O)N1CCCC1`, for which the Kd was > 4 mM (inactive). For the compound `O=C(O)C(O)C(O)C(O)C(O)C(=O)O` (stereo unspecified), the Kd is > 4 mM (inactive).

In the case of `CN(C)c1nc(N)nc(Cn2ccnc2)n1`, the Kd is > 4 mM (inactive).

For `Cc1cc(O)c(NC(=O)c2ccco2)cc1C`, the Kd was > 4 mM (inactive). For the compound `Cc1nc2ccccc2c(=O)[nH]1`, the Kd was > 4 mM (inactive).

As to `Cc1nc(-c2cc(CO)no2)cs1`, the Kd was > 4 mM (inactive). Consider `Cc1ccc(CN2CCNC(=O)C2CC(=O)O)o1` (stereo unspecified), for which the Kd was > 4 mM (inactive). Next, `Cc1c(C(=O)Nc2ccccn2)oc2ccccc12`: > 4 mM (inactive). Next, `CC1=NN2C(=N)CC(=O)N=C2S1`: > 4 mM (inactive); `O=C(Nc1ccc2c(c1)OCO2)c1c(F)cccc1F`: > 4 mM (inactive); `CC(C)NC(=O)c1cc(=O)n(C)c(=O)n1C`: > 4 mM (inactive). Turning to `Cn1c(=O)c2[nH]cnc2n(C)c1=O`, the Kd was > 4 mM (inactive).

For the compound `CCNC(=S)N1CCC(C(N)=O)CC1`, the Kd is > 4 mM (inactive). In the case of `O=C(c1ncc[nH]1)c1ccccc1C(=O)N1CCOCC1`, the Kd is > 4 mM (inactive). As for `Cc1ccc2[nH]cc(CCN)c2c1`, the figure is > 4 mM (inactive); as for `CC(C)[C@@H]1CC[C@@H](C)C[C@H]1OC(=O)c1ccccc1`, > 4 mM (inactive); as for `CC1CCc2cc(F)ccc2N1C(=O)c1ccc(=O)[nH]n1` (stereo unspecified), > 4 mM (inactive). Next, `CCOc1ccc(C)cc1S(=O)(=O)n1ccc(C)n1`: > 4 mM (inactive); `C#CCCCCCCCCCCCC(O)CC(O)COC(C)=O` (stereo unspecified): > 4 mM (inactive); `CC(C)(C)NC(=O)N1CCC(C(=O)O)CC1`: > 4 mM (inactive). Next, `NCCCCN=C(N)N`: > 4 mM (inactive); `C#CCCCCCCCCCCCC(=O)CC(O)COC(C)=O` (stereo unspecified): > 4 mM (inactive); `OCCN1CCN(C(=S)c2ccc(Cl)cc2)CC1`: > 4 mM (inactive). Take `O=c1c(O)c(-c2ccccc2)oc2ccc3occc3c12`: the Kd is > 4 mM (inactive).

`CCOC(=O)c1ccc2c(c1)nnn2C`: the Kd was > 4 mM (inactive). Next, `O=C(NCc1ccc2c(c1)OCO2)c1cccs1`: > 4 mM (inactive). As for `CN1CCN(C(=O)c2ccccc2C(=O)O)CC1`, the figure is > 4 mM (inactive); as for `N#CC(O[C@@H]1O[C@H](CO[C@@H]2O[C@H](CO)[C@@H](O)[C@H](O)[C@H]2O)[C@@H](O)[C@H](O)[C@H]1O)c1ccccc1` (stereo partly specified), > 4 mM (inactive); as for `CC(C)(C)C(=O)Nc1nnc(SCC(N)=O)s1`, > 4 mM (inactive). For `O=C1O[C@H](C(O)CO)C(O)=C1O` (stereo partly specified), the Kd is > 4 mM (inactive). As for `CC(=O)c1c(C)n([O-])c2ccccc2[n+]1=O`, the figure is > 4 mM (inactive); as for `COC(=O)c1cc2cc(N)ccc2s1`, > 4 mM (inactive).

For `Cc1cc(C)nc(/N=C(/N)Nc2cccc(F)c2)n1`, the Kd is > 4 mM (inactive). As to `O=C(Nn1cnnc1)c1ccccc1-c1ccccc1`, the Kd was > 4 mM (inactive). For the compound `COc1cc2c(cc1OC)C1Cc3ccc(OC)c(OC)c3CN1CC2` (stereo unspecified), the Kd is > 4 mM (inactive). Next, `CC(=O)OC(C)(C)[C@@H]1Cc2cc3ccc(=O)oc3cc2O1`: > 4 mM (inactive). As for `COc1ccc(C(=O)NCC(=O)O)cc1`, the figure is > 4 mM (inactive); as for `O=c1cnnc(Nc2ccc(O)cc2)[nH]1`, > 4 mM (inactive). On to `NS(=O)(=O)c1ccc(F)cc1`, for which the Kd is > 4 mM (inactive). Take `c1n[nH]cc1-c1cn[nH]c1`: the Kd is > 4 mM (inactive). As for `O=C1CCC(=O)N1CNc1ccccc1`, the Kd was > 4 mM (inactive). Regarding `c1ccc(-c2noc(-c3ccco3)n2)nc1`, the Kd was > 4 mM (inactive). Next, `O=C(NCC1CCNCC1)c1ccncc1`: > 4 mM (inactive); `COc1ccc(N2C(=N)C(C)(C)NC2=O)cc1`: > 4 mM (inactive). Turning to `Cc1ccc2c(c1)=C(c1sc(N)nc1O)C(=O)N=2`, the Kd was > 4 mM (inactive). Take `CC(=O)c1c(O)cc(O)cc1O`: the Kd is > 4 mM (inactive).

In the case of `Cc1ccc(C(C)C)cc2c(C)ccc1-2`, the Kd is > 4 mM (inactive).

Regarding `NC1Cc2ccccc2C1`, the Kd is > 4 mM (inactive).

Regarding `COc1c(-c2ccccc2)oc2c(OC)cccc2c1=O`, the Kd is > 4 mM (inactive).

Turning to `COc1cc(O)c2c(c1)C(=O)c1cc(C)cc(O)c1C2=O`, the Kd was > 4 mM (inactive).

For the compound `Cc1cc(=O)[nH]c(NCc2cccnc2)n1`, the Kd is > 4 mM (inactive).

Consider `Cc1cc(C(=O)N2CCN(c3ccccn3)CC2)no1`, for which the Kd is > 4 mM (inactive). Turning to `Cc1[nH]c2ccccc2c(=O)c1CO`, the Kd is > 4 mM (inactive).

For `O=C(c1ccc(F)cc1)N1CCN(c2ncccn2)CC1`, the Kd was > 4 mM (inactive). Next, `O=C(/C=C(\O)c1ccccc1)c1ccccc1O`: > 4 mM (inactive); `CCOC(=O)c1c(-c2ccncc2)csc1N`: > 4 mM (inactive).

Values taken from PubChem BioAssay AID1552 (Sanford-Burnham Center for Chemical Genomics, 2009).
